Converted amounts (≈) assume the structure as drawn.
Assay: Aqueous kinetic solubility measurement
Format: physicochemical
Experimental: Compounds were evaluated for their kinetic solubility in buffer or water. Aliquots of 8 μL of reference and test compound stock solutions (10 mM in DMSO) were added into 792 μL of 100 mM phosphate buffer (0.1 M NaPO4, pH 7.4). Final DMSO concentration is 1%. The sample tubes were shaken for 1 hour (1000 rpm) at room temperature. A calibration curve was prepared using 300 μM spiking solution (SS) in MeOH/ACN(4:1) (SS=add 6 μL 10 mM compound in 194 μL MeOH/ACN(4:1)). Samples were centrifuged for 10 min (12000 rpm) to precipitate undissolved particles, and the supernatants were transferred to a new tube or plate. Supernatants were diluted 10 times and 100 times with 100 mM buffer. Samples were then prepared for analysis by LC-MS/MS (Add 5 μL of compound samples (not diluted, 10 times diluted and 100 times diluted) and standard curve samples to 95 μL of ACN containing internal standard. Internal standards used are Propranolol, Ketoconazole, and Tamoxifen.

## COCc1cc2c(cn1)CN(C(=O)Nc1nc(-c3ccc(F)cc3F)ccc1N)C2 [Compound 1]
  solubility (in words): slightly reduced
Aqueous buffer, kinetic from dmso stock, kinetic, 100 mM phosphate buffer pH 7.4, 1% DMSO
  solubility at 1 h: 27 µM (≈ 11.1 µg/mL)

Reference: patent US11286256B2, “Bicyclic inhibitors of histone deacetylase” (Alkermes, Inc., priority 2017, dated 2022)
